For the experiment, the target named is T1, RACK1A (RECEPTOR FOR ACTIVATED C KINASE 1A) (Arabidopsis thaliana, UniProt O24456).
T1 construct: WD40 seven-bladed beta-propeller scaffold protein
Nature of the experiment: microscale thermophoresis (MST). Format: binding. (MST reads how a fluorescent partner responds to local heating, with and without ligand.)

From PMC12318229, “RACK1A positively regulates opening of the apical hook in Arabidopsis thaliana via suppression of its auxin response gradient” (Proceedings of the National Academy of Sciences of the …, 2025) come the findings set out here.

T1 sequence (O24456 whole entry): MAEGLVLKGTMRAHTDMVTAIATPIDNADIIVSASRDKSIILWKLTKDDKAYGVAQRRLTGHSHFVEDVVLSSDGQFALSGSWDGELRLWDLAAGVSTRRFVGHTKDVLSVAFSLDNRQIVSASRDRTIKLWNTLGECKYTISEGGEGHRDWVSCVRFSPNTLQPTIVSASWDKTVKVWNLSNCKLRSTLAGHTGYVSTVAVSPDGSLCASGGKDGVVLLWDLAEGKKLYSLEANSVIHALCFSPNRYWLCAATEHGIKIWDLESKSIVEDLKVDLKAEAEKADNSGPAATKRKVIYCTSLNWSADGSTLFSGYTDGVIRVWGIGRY

For the compound `COc1cc(OC)cc(C(=O)Nc2ccc3ccccc3c2)c1` [DAPIA], the Kd (usually the constant that tells how readily two partners part at equilibrium) was determined as 32.8 ± 15.7 µM.
